The subject of test [1] is HCT-116. The experiment in a line: microarray analysis. The class given is cell-based, human. Conditions: HCT-116 by context; 24 hours vs untreated. Here is the method: Microarrays. A total of 0.5×10^6 tumor cells (HCT-116, HT-29, KM12C) were plated in a 6-well plate and allowed to adhere overnight before 24-hour treatment, as indicated. Then, 1×10^6 immune cells (NK92, TALL-104) were plated and treated with elraglusib as indicated for twenty-four h. RNA was isolated from cell pellets in batches of six using a RNeasy Plus Mini Kit (Cat #74134, Qiagen, Hilden, Germany). Acceptable RNA concentration and quality were verified with Nanodrop and Bioanalyzer measurements. GeneChip™ Human Transcriptome Array 2.0 assays were conducted according to manufacturer instructions in two batches using randomized samples to limit batch effects (Cat #902162, Applied Biosystems, Waltham, MA, USA). Applied Biosystems Transcriptomic Analysis Console (TAC) software (RRID: SCR_016519) was used to calculate fold changes in gene expression relative to the untreated control cells. Values were considered statistically significant for p values<0.05.
The inventors then utilized microarray analysis to gain insights into gene expression changes in colorectal cancer cell lines post-GSK-3 inhibition with elraglusib. Several colorectal cancer cell lines (HCT-116, HT-29, KM12C) were treated with elraglusib at IC-50 concentrations or DMSO as vehicle control for twenty-four hours. Treated versus untreated samples were compared in triplicate using microarray analysis FIG. 10. Results were calculated using a fold change (FC) cutoff of >1.5, <−1.5, and a minimum p-value of<0.05. HCT-116 cells had 340 differentially expressed genes post-treatment. FIG. 2C.

Test [2] has as its system panel of human colorectal cell lines. Kind of test: Luminex 200 analysis of tumor cell culture supernatants (Example 1). Format: cell-based. Here is the method: Human cytokine profiling. Human cell line culture supernatants were analyzed using an R&D systems Human Premixed Multi-Analyte Kit (R&D Systems, Inc., Minneapolis, MN, USA) and a Luminex 200 (RRID: SCR_018025) Instrument (LX200-XPON-RUO, Luminex Corporation, Austin, TX, USA) according to the manufacturer's instructions. Sample levels of TNF-α, 4-1BB/TNFRSF9/CD137, IL-8/CXCL8, Ferritin, IFN-β, IL-10, CCL2/JE/MCP-1, VEGF, CXCL13/BLC/BCA-1, IFN-γ, CCL20/MIP-3 α, CCL3/MIP-1 α, CCL22/MDC, CCL4/MIP-1 β, Fas Ligand/TNFSF6, IL-17/1L-17A, IL-2, BAFF/BLyS/TNFSF13B, GM-CSF, CXCLS/ENA-78, TRANCE/TNFSF11/RANK L, CXCL9/MIG, G-CSF, IFN-γ R1/CD119, VEGFR3/Flt-4, C-Reactive Protein/CRP, CXCL11/I-TAC, IL-21, CXCL14/BRAK, IL-6, Fas/TNFRSF6/CD95, TRAIL R3/TNFRSF10C, IL-4, CCL5/RANTES, PD-L1/137-H1, CCL7/MCP-3/MARC, Chitinase 3-like 1, CXCL10/IP-10/CRG-2, IL-1 μ/IL-1F2, IL-7, Prolactin, CCL8/MCP-2, TRAIL R2/TNFRSF10B, M-CSF, IL-15, Granzyme B, IFN-α, TREM-1, IL-12/1L-23 p40, TRAIL/TNFSF10, CCL11/Eotaxin, and 1L-18/1L-1F4. Quantitative analysis with 6 standards and a minimum of 50 counts per bead region was used with the Luminex to generate analyte values reported as picograms/milliliter (pg/mL). Sample concentrations less than the lower limit of detection for each particular analyte were recoded as the lower limit value divided by 10. Sample concentrations above the upper limit of detection for a particular analyte were recoded as the upper limit of detection.
(§1) A panel of human colorectal cell lines was chosen to provide a varied mutational background (TP53, KRAS, BRAF, TRK, APC, PIK3CA). Cells were treated with elraglusib at doses up to 50 μM for seventy-two hours to determine IC10, IC30, IC50, and IC70. Cytokine, chemokine, and growth factor levels were analyzed in the tumor cell culture supernatants after treatment at IC10, IC30, IC50, and IC70 for forty-eight hours using a Luminex 200 multiplexing instrument. Co-culture experiments were conducted with GFP+ SW480 colorectal cancer cells and either NK-92 natural killer cells or TALL-104 T cells at various effector/target ratios in a 48-well plate, in the presence or absence of elraglusib.

Test [3] relates to NK-92. The experiment in a line: Western blot analysis. Format: cell-based, human. How it is done:
Western blot analysis. Cells were plated in a 6-well plate and incubated overnight before the spent media was replaced with drugged media. Drug treatment lasted for indicated durations. Protein was extracted using radioimmunoprecipitation (RIPA) assay buffer (Cat #R0278, Sigma-Aldrich, St. Louis, MO, USA) containing cOmplete™, Mini, EDTA-free Protease Inhibitor Cocktail (Cat #4693159001, Roche, Basel, Switzerland) from sub-confluent cells. Denaturing sample buffer was added, samples were boiled at 95° C. for ten minutes, and an equal amount of protein lysate was electrophoresed through NuPAGE™ 4 to 12%, bis-Tris, 1.5 mm, Mini Protein Gels (Invitrogen, Waltham, MA, USA) then transferred to PVDF membranes. The PVDF membrane was blocked with 5% non-fat milk (Sigma-Aldrich, St. Louis, MO, USA) in 1× TTBS. Primary antibodies were incubated with the transferred PVDF membrane in blocking buffer at 4° C. overnight. Secondary antibodies included Goat anti-Rabbit IgG (H+L) Secondary Antibody, HRP (Cat #31460, Invitrogen, Waltham, MA, USA), and Goat anti-Mouse IgG (H+L) Secondary Antibody, HRP (Cat #31430, Invitrogen, Waltham, MA, USA). The signal was detected using Pierce™ ECL Western Blotting Substrate (Cat #32106, Thermo Scientific, Waltham, MA, USA) and a Syngene Imaging System (RRID: SCR_015770).
Because of the differential impact of elraglusib on tumor and immune cells that the inventors observed via Western blot, the inventors compared the levels of another survival protein Mcl-1 in NK-92 natural killer cells.
A general note: In western blotting, separated proteins are transferred to a membrane and probed.

The subject of test [4] is GFP+ SW480 colorectal cancer cells. The experiment in a line: immune cell-killing co-culture assay (Example 1). The class given is cell-based, human. Here is the method: as §1
[5] abbreviates: immune cells, cell line not given.
Where [6] appears, read: vs controls without drug treatment.

As to `Cn1cc(C2=C(c3coc4ccc(F)cc34)C(=O)NC2=O)c2cc3c(cc21)OCO3` [elraglusib], in test [1], the CMTM4 fold change is listed as −1.84, the NEK2 fold change is recorded as −2.21 and the PPP1R1C fold change was 1.78. Moreover, the “macrophage colony-stimulating factor (M-CSF)” value in test [2] is recorded as “decrease”. Moreover, in test [2] (IC10, IC30, IC50, IC70 for forty-eight hours), the VEGF in supernatant entry is on record as “decreased”. The Overall cytokine levels result in test [2] (in response to increasing doses) was “decreasing trend”. The “CXCL14 (BRAK) in supernatant” value in test [2] (with increasing doses) is on record as “increase”. Further, in test [3] (setting [5]), the “NF-κB-inducing kinase (NIK) expression” value is on record as “increases” and the Survivin expression entry is “increases”. In addition, in test [3] (through the 72-hour endpoint), the Mcl-1 protein expression entry is “did not observe a significant decrease”. The “cell-killing after pre-treatment of the target tumor cells” value in test [4] (pre-treatment of tumor cells, but not effector immune cells) was “bolstered cell-killing”. For the same molecule, in test [4] (setting [6]), the “T cell (TALL-104) killing of colorectal cancer cells” value is given as “significant increase” and the “natural killer (NK-92) cell killing of colorectal cancer cells” value is on record as “significant increase”.

Source of the values: patent US20240041830A1, “CIRCULATING BIOMARKERS OF RESPONSE TO PD-1/PD-L1 BLOCKADE AND GSK-3 INHIBITION” (Brown University, priority 2022, published 2024).
